Experimental data from patent US20230357272A1, “OCTAHYDROPYRAZINODIAZANAPHTHYRIDINE DIONE COMPOUNDS” (MEDSHINE DISCOVERY INC., priority 2020, published 2023).

Assays:
[1] = test system: human colon cancer CO-04-0070 subcutaneous xenograft tumor; experiment: In vivo pharmacodynamic study on human colon cancer CO-04-0070 subcutaneous xenograft tumor model; design: species or system BALB/c nude mouse; conditions: for Tumor volume (Day 0): Day 0 (at grouping); for Tumor volume (Day 0) / Tumor volume (Day 20) / Tumor weight (Day 20): mean ± SEM, n = 8; for RTV (Day 20) / T/C (%) (Day 20) / T/Cweight / TGI (%) (Day 20) / Tumor volume (Day 20) / Tumor weight (Day 20): Day 20
Protocol: To evaluate the in vivo efficacy of the compound in the human colon cancer CO-04-0070 subcutaneous xenograft tumor BALB/c nude mouse model.
Each animal was inoculated with a CO-04-0070 FP7 tumor block with a volume of about 30 mm^3 in the right back position. When the mean tumor volume reached 151 mm^3, random grouping was used and the administration was started.
Tumor diameters were measured with vernier calipers twice a week. The calculation formula of tumor volume was: V=0.5a×b^2, wherein a and b represented the long and short diameters of the tumor, respectively.
The anti-tumor efficacy of the compounds was evaluated by TGI (%) or relative tumor proliferation rate T/C (%). Relative tumor proliferation rate T/C (%)=TRTV/CRTV×100% (TRTV: mean RTV of the treatment group; CRTV: mean RTV of the negative control group). The relative tumor volume (RTV) was calculated according to the results of tumor measurement, and the calculation formula was RTV=Vt/V0, wherein V0 was the tumor volume measured at the time of group administration (that is, D0), Vt was the tumor volume at a certain measurement, and the data of TRTV and CRTV were taken on the same day. TGI (%), reflecting the tumor growth inhibition rate.
TGI (%)=[1−(mean tumor volume at the end of administration in a treatment group−mean tumor volume at the beginning of administration in the treatment group)/(mean tumor volume at the end of treatment in vehicle control group−mean tumor volume at the beginning of treatment in vehicle control group)]×100%.
After the experiment, the tumor weight would be detected, and the percentage of T/Cweight would be calculated. Tweight and Cweight represented the tumor weight of the administration group and the vehicle control group, respectively.

MIA-PA-CA-2 cells = experiment: Anti-proliferation experiment of MIA-PA-CA-2 cells (CellTiter-Glo); format: cell-based; conditions: Homo sapiens, MIA PaCa-2, 72 h, 3 days
Protocol: DMEM culture medium, fetal bovine serum purchased from Biosera, and horse serum purchased from Gibco. CellTiter-Glo (chemiluminescence detection reagent for cell viability) reagent purchased from Promega. MIA-PA-CA-2 cell line purchased from Nanjing CoBioer Biotechnology Co., Ltd. EnVision multi-label analyzer (PerkinElmer).
MIA-PA-CA-2 cells were seeded in a white 96-well plate with 80 μL of cell suspension per well, which contained 1000 MIA-PA-CA-2 cells. The cell plate was incubated overnight in a carbon dioxide incubator.
The compounds to be tested were diluted 5-fold with a row gun to the eighth concentration, that is, from 2 mM to 26 nM, and a double-duplication experiment was set up. 78 μL of culture medium was added to a middle plate, and then 2 μL of gradient diluted compound per well was transferred to the middle plate according to the corresponding position. After being thoroughly mixed, 20 μL per well was transferred to the cell plate. The concentration range of the compound transferred to the cell plate was 10 μM to 0.13 nM. The cell plate was placed in the carbon dioxide incubator for 3 days. Another cell plate was prepared, and the signal value was read as the maximum value (Max value in the equation below) on the day of administration to participate in data analysis. 25 μL of cell viability chemiluminescence detection reagent was added to each well of the cell plate, and incubated at room temperature for 10 minutes to stabilize the luminescence signal. A multi-label analyzer was used for reading.
Using the equation (Sample−Min)/(Max−Min)*100% to convert the raw data into inhibition rate, and the value of IC50 might be obtained by curve fitting with four parameters (obtained by “log (inhibitor)/response—Variable scope” mode in GraphPad Prism software). Table 2 provides the inhibitory activity of the compounds of the present disclosure on the proliferation of MIA-PA-CA-2 cells.

- IC50 (MIA-PA-CA-2 cells): 8 nM
SMILES: C=CC(=O)N1CCN2c3c(c(=O)n(-c4c(C)ccnc4C(C)C)c4c(=O)n(-c5c(N)c(Cl)cc(Cl)c5F)c(C(F)(F)F)cc34)OCC[C@H]2C1 [Compound 1D]
- Tumor volume (Day 0) ([1]; 3 mg/kg PO QD × 3 weeks): 151 mm^3
- RTV (Day 20) ([1]; 3 mg/kg PO QD × 3 weeks): 5.32
- T/C (%) (Day 20) ([1]; 3 mg/kg PO QD × 3 weeks): 58.0%
- T/Cweight ([1]; 3 mg/kg PO QD × 3 weeks): 61.6%
- TGI (%) (Day 20) ([1]; 3 mg/kg PO QD × 3 weeks): 45.4%
- Tumor volume (Day 20) ([1]; 3 mg/kg PO QD × 3 weeks): 788 mm^3
- Tumor weight (Day 20) ([1]; 3 mg/kg PO QD × 3 weeks): 0.832 ± 0.102 g
- Tumor volume (Day 0) ([1]; 10 mg/kg PO QD × 3 weeks): 151 mm^3
- RTV (Day 20) ([1]; 10 mg/kg PO QD × 3 weeks): 2.43
- T/C (%) (Day 20) ([1]; 10 mg/kg PO QD × 3 weeks): 26.5%
- T/Cweight ([1]; 10 mg/kg PO QD × 3 weeks): 30.1%
- TGI (%) (Day 20) ([1]; 10 mg/kg PO QD × 3 weeks): 80.5%
- Tumor volume (Day 20) ([1]; 10 mg/kg PO QD × 3 weeks): 379 mm^3
- Tumor weight (Day 20) ([1]; 10 mg/kg PO QD × 3 weeks): 0.406 ± 0.095 g
- Tumor volume (Day 0) ([1]; 30 mg/kg PO QD × 3 weeks): 151 mm^3
- RTV (Day 20) ([1]; 30 mg/kg PO QD × 3 weeks): 1.02
- T/C (%) (Day 20) ([1]; 30 mg/kg PO QD × 3 weeks): 11.1%
- T/Cweight ([1]; 30 mg/kg PO QD × 3 weeks): 12.0%
- TGI (%) (Day 20) ([1]; 30 mg/kg PO QD × 3 weeks): 99.9%
- Tumor volume (Day 20) ([1]; 30 mg/kg PO QD × 3 weeks): 152 mm^3
- Tumor weight (Day 20) ([1]; 30 mg/kg PO QD × 3 weeks): 0.162 ± 0.023 g
